Data reported in patent publication US8637516B2 (IRM LLC, priority 2010, dated 2014).

What was measured:
[1] = target: T1, Ba/F3 cells transformed with human Tel-TrkA (Homo sapiens, UniProt P04629); test: Proliferation of Ba/F3 cells transformed with human Tel-TrkA (Ba/F3 Tel-TrkA); assay type: cell-based; settings: Table 1; 48 hours, Bright Glo luminescence; read-out: Ba/F3 Tel-TrkA
T1 construct: expressed in transfected cells; host or cells: Ba/F3 murine hematopoietic progenitor cells (luciferase expressing); the other entry of the earlier key: ETV6 (P41212, Transcription factor ETV6)
Description: (§1) Compound dilutions were made in 384 well plates.
(§2) The emited luminiscence is quantified using ViewLux (PerkinElmer).

parental Ba/F3 cells = test: Proliferation of parental (untransformed, wt) Ba/F3 cells (BAF3/WT); assay type: cell-based, murine; settings: Mus musculus, Table 1, parental cells with IL3, 48 hours
Description: as §1
Compounds were tested for their ability to inhibit the proliferation of wt Ba/F3 cells and Ba/F3 cells transformed with constitutively expressed luciferase reporter and BCR-ABL or Tel-FMS or other Tel fusion kinases (EGFR, JAK2, ALK, BMX, FGFR3, FGFR4, FGR2, FLT1, FLT3, IGF1R, INSR, KDR, KIT, LCK, LYN, MEK, MET, PDGFRα, PDGFRβ, RET, RON, ROS, SRC, SYK, TIE and TYRO) or BRafV600E. Parental Ba/F3 cells were maintained in media containing recombinant mouse IL3 and the kinase transformed Ba/F3 cells were maintained in media without IL-3. 7.5 nl of compounds were spotted to each well of 1536-well assay plates by Liquid handling System Echo 555 (Labcyte). 700 cells were then plated into each well of the assay plates in 7 uL culture media per well and compounds were tested at 0.17 nM to 10 uM in 3-fold serial dilutions. The cells were then incubated for 48 hours at 37° C. 3 uL of Bright-Glo® (Promega) was added to each well and the plates were read using ViewLux (PerkinElmer).
as §2

T1 sequence (P04629 510-796 limits assumed): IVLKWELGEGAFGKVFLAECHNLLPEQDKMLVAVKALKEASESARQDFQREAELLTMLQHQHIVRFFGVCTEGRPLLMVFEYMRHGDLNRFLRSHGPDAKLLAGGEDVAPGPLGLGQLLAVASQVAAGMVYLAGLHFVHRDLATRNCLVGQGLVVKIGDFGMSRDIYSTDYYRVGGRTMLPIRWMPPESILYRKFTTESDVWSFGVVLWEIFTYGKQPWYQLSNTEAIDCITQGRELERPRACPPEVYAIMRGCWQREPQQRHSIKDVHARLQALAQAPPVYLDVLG

| SMILES | IC50 [1] [nM] | IC50 (parental Ba/F3 cells) [nM] |
| --- | --- | --- |
| CC(=O)NCC(=O)Nc1cnc2ccc(N3CCC[C@H]3c3cccc(F)c3)nn12 [X-201] | 392 | > 10000 |
| CC(C)NC(=O)c1cnc2ccc(N3CCC[C@@H]3c3cccc(F)c3)nn12 [X-39] | 14 | > 10000 |
| CCn1nccc1NC(=O)c1cnc2ccc(N3CCC[C@@H]3c3cccc(F)c3)nn12 [X-77] | 548 | > 10000 |
| CC(=O)OCC(=O)Nc1cnc2ccc(N3CCC[C@@H]3c3cccc(F)c3)nn12 [X-172, (R)-2-(6-(2-(3-fluorophenyl)pyrrolidin-1-yl)imidazo[1,2-b]pyridazin-3-ylamino)-2-oxoethyl acetate] | 38 | > 10000 |
| COCCNC(=O)c1cnc2ccc(N3CCC[C@@H]3c3cccc(F)c3)nn12 [X-51] | 67 | > 10000 |
| NCC(=O)Nc1cnc2ccc(N3CCC[C@@H]3c3cccc(F)c3)nn12 [X-193] | 118 | > 10000 |
| N#Cc1cc(F)cc([C@H]2C[C@H](F)CN2c2ccc3ncc(C(N)=O)n3n2)c1 [X-244] | 61 | > 10000 |
| N#Cc1cccc(NC(=O)c2cnc3ccc(N4CCC[C@@H]4c4cccc(F)c4)nn23)c1 [X-65, (R)-N-(3-cyanophenyl)-6-(2-(3-fluorophenyl)pyrrolidin-1-yl)imidazo[1,2-b]pyridazine-3-carboxamide] | 92 | > 9510 |
| O=C(NCCC1CCCC1)c1cnc2ccc(N3CCC[C@@H]3c3cccc(F)c3)nn12 [X-108] | 191 | 6480 |
| O=C(NCCF)c1cnc2ccc(N3CCC[C@@H]3c3cccc(F)c3)nn12 [X-96] | 7 | > 10000 |
| O=C(NCc1ccc(F)cc1)c1cnc2ccc(N3CCCC3c3cccc(F)c3)nn12 (centres unmarked) [X-24] | 236 | > 10000 |
| CCNS(=O)(=O)c1cnc2ccc(N3CCC[C@@H]3c3cccc(F)c3)nn12 [X-237, (R)-N-ethyl-6-(2-(3-fluorophenyl)pyrrolidin-1-yl)imidazo[1,2-b]pyridazine-3-sulfonamide] | 3320 | > 10000 |
| O=C(NCC1CC1)c1cnc2ccc(N3CCC[C@@H]3c3cccc(F)c3)nn12 [X-90] | 14 | > 10000 |
| CN1CCN(NC(=O)c2cnc3ccc(N4CCC[C@@H]4c4cccc(F)c4)nn23)CC1 [X-154, (R)-6-(2-(3-fluorophenyl)pyrrolidin-1-yl)-N-(4-methylpiperazin-1-yl)imidazo[1,2-b]pyridazine-3-carboxamide] | 153 | > 10000 |
| O=C(NC1CCN(C(=O)CO)CC1)c1cnc2ccc(N3CCC[C@@H]3c3cccc(F)c3)nn12 [X-75, (R)-6-(2-(3-fluorophenyl)pyrrolidin-1-yl)-N-(1-(2-hydroxyacetyl)piperidin-4-yl)imidazo[1,2-b]pyridazine-3-carboxamide] | 98 | > 10000 |
| CC(C)(C)OC(=O)Nc1cnc2ccc(N3CCC[C@@H]3c3cccc(F)c3)nn12 [X-233] | 379 | > 10000 |
| COCCC(=O)Nc1cnc2ccc(N3CCC[C@@H]3c3cccc(F)c3)nn12 [X-173] | 229 | > 10000 |
| COC(=O)N[C@@H](C)CNC(=O)c1cnc2ccc(N3CCC[C@@H]3c3cccc(F)c3)nn12 [X-87] | 76 | > 10000 |
| CCOC(=O)c1cnc2ccc(N3CCC(=O)C3c3cccc(F)c3)nn12 (centres unmarked) [X-159, ethyl 6-(2-(3-fluorophenyl)-3-oxopyrrolidin-1-yl)imidazo[1,2-b]pyridazine-3-carboxylate] | 251 | > 10000 |
| O=C(NO)c1cnc2ccc(N3C[C@@H](F)C[C@@H]3c3cccc(F)c3)nn12 [X-153] | 10 | > 10000 |
| O=C(COc1ccc(F)cc1)Nc1cnc2ccc(N3CCC[C@@H]3c3cccc(F)c3)nn12 [X-26] | 85 | > 10000 |

| SMILES | IC50 [1] [nM] | IC50 (parental Ba/F3 cells) [nM] |
| --- | --- | --- |
| NS(=O)(=O)CCNC(=O)c1cnc2ccc(N3C[C@@H](F)CC3c3cccc(F)c3)nn12 (some centres unmarked) [X-118] | 54 | > 10000 |
| O=C(N[C@H]1CCCC[C@@H]1O)c1cnc2ccc(N3CCC[C@@H]3c3cccc(F)c3)nn12 [X-82] | 89 | > 10000 |
| O=C(NCC(F)(F)F)c1cnc2ccc(N3CCC[C@@H]3c3cccc(F)c3)nn12 [X-53] | 3 | > 10000 |
| O=C(NC1CCSCC1)c1cnc2ccc(N3CCC[C@@H]3c3cccc(F)c3)nn12 [X-59] | 36 | > 10000 |
| CC(C)(C)OC(=O)N1CC(NC(=O)c2cnc3ccc(N4CCC[C@@H]4c4cccc(F)c4)nn23)C1 [X-61] | 144 | > 10000 |
| CC(C)C[C@H](CO)NC(=O)c1cnc2ccc(N3CCC[C@@H]3c3cccc(F)c3)nn12 [X-107] | 40 | > 10000 |
| N/C(=N\OCCO)c1cnc2ccc(N3CCC[C@@H]3c3cccc(F)c3)nn12 [X-229] | 331 | > 10000 |
| O=C(NC[C@@H]1CCCO1)c1cnc2ccc(N3CCC[C@@H]3c3cccc(F)c3)nn12 [X-85] | 54 | > 10000 |
| [2H]C1([2H])CC[C@@H](c2cccc(F)c2)N1c1ccc2ncc(C(N)=O)n2n1 [X-10] | 841 | > 10000 |
| CC(C)(C)OC(=O)NCC(=O)Nc1cnc2ccc(N3CCC[C@@H]3c3cccc(F)c3)nn12 [X-192] | 127 | > 10000 |
| CC(=O)N1CC[C@@H](NC(=O)c2cnc3ccc(N4CCC[C@@H]4c4cccc(F)c4)nn23)C1 [X-66] | 737 | > 10000 |
| CC(C)C[C@@H](CO)NC(=O)c1cnc2ccc(N3CCC[C@@H]3c3cccc(F)c3)nn12 [X-104] | 697 | > 10000 |
| O=C(N[C@H]1CC[C@@H](O)CC1)c1cnc2ccc(N3CCC[C@@H]3c3cccc(F)c3)nn12 [X-80] | 6 | > 10000 |
| O=C(NCCN1CCCC1=O)c1cnc2ccc(N3CCC[C@@H]3c3cccc(F)c3)nn12 [X-86] | 191 | > 10000 |
| O=C(CCc1cccc(F)c1)c1cnc2ccc(N3CCC[C@@H]3c3cccc(F)c3)nn12 [X-127, (R)-3-(3-fluorophenyl)-1-(6-(2-(3-fluorophenyl)pyrrolidin-1-yl)imidazo[1,2-b]pyridazin-3-yl)propan-1-one] | 38 | > 10000 |
| CC(NC(=O)c1cnc2ccc(N3CCC[C@@H]3c3cccc(F)c3)nn12)c1ccc(F)cc1 (some centres unmarked) [X-42] | 127 | > 9570 |
| CCOC(=O)c1cnc2ccc(N3C[C@@H](F)C[C@@H]3c3ccc(F)c(F)c3)nn12 [X-239] | 194 | > 10000 |
| O=C(N[C@H]1CCCC[C@@H]1CO)c1cnc2ccc(N3CCC[C@@H]3c3cccc(F)c3)nn12 [X-28] | 112 | > 10000 |
| N#CCC(=O)Nc1cnc2ccc(N3CCC[C@@H]3c3cccc(F)c3)nn12 [X-184] | 291 | > 10000 |
| NC(=NO)c1cnc2ccc(N3CCC[C@@H]3c3cccc(F)c3)nn12 [X-227, (Z)-6-(2-(3-fluorophenyl)pyrrolidin-1-yl)-N′-hydroxyimidazo[1,2-b]pyridazine-3-carboximidamide] | 44 | > 10000 |
| O=C(NCCF)c1cnc2ccc(N3C[C@@H](F)C[C@@H]3c3cccc(F)c3)nn12 [X-112, 6-((2R,4S)-4-fluoro-2-(3-fluorophenyl)pyrrolidin-1-yl)-N-(2-fluoroethyl)imidazo[1,2-b]pyridazine-3-carboxamide] | – | 5450 |
